The source of these data is patent publication US9029366B2, “Substituted bicyclic alkoxy pyrazole analogs as allosteric modulators of mGluR5 receptors” (Vanderbilt University, priority 2012, dated 2015).

The target of the assay is human mGluR5 (Homo sapiens, UniProt P41594). In words: Cell-based functional Ca2+ mobilization assay (FDSS), potentiation of glutamate EC20 response, HEK293A cells transfected with human mGluR5a (H10H or H12H cell line). Particulars: H10H cell line expressing recombinant human mGluR5, in presence of glutamate EC20, ** = compound is an antagonist; for EC50: read-out: pEC50 (converted); for Emax: HEK293-A, % of maximal glutamate response. As for the experimental part: Human embryonic kidney (HEK) cells transfected with rat mGluR5 were plated in clear bottom assay plates for assay in a Functional Drug Screening System (FDSS). In the alternative assay, HEK cells transfected with human mGluR5 were plated for assay in the FDSS. In some cases the HEK cells transfected with human mGluR5 are the H10H cell line. Alternatively, the HEK cells transfected with human mGluR5 are the H12H cell line. […] The cells were loaded with a Ca^2+-sensitive fluorescent dye (e.g., Fluo-4), and the plates were washed and placed in the FDSS instrument. After establishment of a fluorescence baseline for about three seconds, the compounds of the present invention were added to the cells, and the response in cells was measured. Five minutes later, an mGluR5 agonist (e.g., glutamate, 3,5-dihydroxyphenylglycine, or quisqualate) was added to the cells, and the response of the cells was measured.
Sequence of human mGluR5 (P41594 21-1180 isoform P41594-2 limits assumed): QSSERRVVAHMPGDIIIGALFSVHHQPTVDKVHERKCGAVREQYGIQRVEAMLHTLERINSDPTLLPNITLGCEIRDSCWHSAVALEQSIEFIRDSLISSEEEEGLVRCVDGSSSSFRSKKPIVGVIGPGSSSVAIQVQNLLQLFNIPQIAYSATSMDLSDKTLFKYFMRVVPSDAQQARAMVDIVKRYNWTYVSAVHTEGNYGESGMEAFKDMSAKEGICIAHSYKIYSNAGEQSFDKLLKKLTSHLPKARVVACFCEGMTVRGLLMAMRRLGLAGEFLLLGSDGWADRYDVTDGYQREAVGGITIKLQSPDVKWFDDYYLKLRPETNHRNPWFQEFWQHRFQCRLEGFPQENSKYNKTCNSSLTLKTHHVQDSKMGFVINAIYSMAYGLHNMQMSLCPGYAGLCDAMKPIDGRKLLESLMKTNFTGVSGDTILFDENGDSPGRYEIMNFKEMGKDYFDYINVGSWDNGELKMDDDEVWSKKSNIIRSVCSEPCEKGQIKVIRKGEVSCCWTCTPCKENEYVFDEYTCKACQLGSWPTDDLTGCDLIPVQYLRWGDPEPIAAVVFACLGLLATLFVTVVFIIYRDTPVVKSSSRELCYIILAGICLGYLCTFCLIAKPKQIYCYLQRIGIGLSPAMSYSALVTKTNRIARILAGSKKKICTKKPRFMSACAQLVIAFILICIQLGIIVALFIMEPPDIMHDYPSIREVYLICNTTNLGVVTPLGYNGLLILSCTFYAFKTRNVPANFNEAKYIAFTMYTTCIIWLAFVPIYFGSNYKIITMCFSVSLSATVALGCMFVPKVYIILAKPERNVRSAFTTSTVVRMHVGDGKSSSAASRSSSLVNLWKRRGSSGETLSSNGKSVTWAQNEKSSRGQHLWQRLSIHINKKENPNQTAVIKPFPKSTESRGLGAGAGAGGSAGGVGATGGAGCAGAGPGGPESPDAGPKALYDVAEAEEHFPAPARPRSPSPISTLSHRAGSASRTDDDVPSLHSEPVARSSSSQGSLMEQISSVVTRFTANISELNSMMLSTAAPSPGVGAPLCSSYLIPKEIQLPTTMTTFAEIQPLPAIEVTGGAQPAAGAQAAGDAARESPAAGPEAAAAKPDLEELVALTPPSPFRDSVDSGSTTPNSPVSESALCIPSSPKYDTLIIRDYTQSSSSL
The above described assay can be operated in two modes. In the first mode, a range of concentrations of the present compounds were added to cells, followed by a single fixed concentration of agonist. If a compound acted as a potentiator, an EC50 value for potentiation and a maximum extent of potentiation by the compound at this concentration of agonist was determined by non-linear curve fitting. In the second mode, several fixed concentrations of the present compounds were added to various wells on a plate, followed by a range of concentrations of agonist for each concentration of present compound; the EC50 values for the agonist at each concentration of compound were determined by non-linear curve fitting. A decrease in the EC50 value of the agonist with increasing concentrations of the present compounds (a leftward shift of the agonist concentration-response curve) is an indication of the degree of mGluR5 potentiation at a given concentration of the present compound. An increase in the EC50 value of the agonist with increasing concentrations of the present compounds (a rightward shift of the agonist concentration-response curve) is an indication of the degree of mGluR5 antagonism at a given concentration of the present compound. The second mode also indicates whether the present compounds also affect the maximum response to mGluR5 to agonists.
Human mGluR5a cDNA in pCMV6-XL6 mammalian expression plasmid was purchased from OriGene Technologies, Inc. (catalogue number SC326357) and subcloned into pcDNA3.1(−). Human embryonic kidney (HEK)293A cells were then transfected with human mGluR5a pcDNA3.1(−) using LipofectAmine2000 (Invitrogen) and monoclones were selected and tested for functional response using a Ca^2+ mobilization assay. Monoclones were named for the species (“H” for human) plus the location on the plate (e.g. “10H”).
HEK cells transfected with the human mGluR5a receptor (H10H or H12H cell line) were plated at 15,000 cells/well in clear-bottomed poly-D-lysine-coated assay plates (BD Falcon) in glutamate-glutamine-free growth medium and incubated overnight at 37° C. and 5% CO2. Cell-lines used were either the H10H or H12H cell-lines expressing the human mGluR5 receptor. The following day, the growth medium was removed and the cells were washed with assay buffer containing 1× Hank's balanced salt solution (Invitrogen, Carlsbad, Calif.), 20 mM HEPES, 2.5 mM probenecid, pH 7.4 and left with 20 μL of this reagent. Following this step, the cells were loaded with calcium indicator dye, fluo-4 AM, to a final concentration of 2 μM and incubated for 40-45 min at 37° C. The dye solution was removed and replaced with assay buffer. Cell plates were held for 10-15 min at room temperature and were then loaded into the Functional Drug Screening System 6000 (FDSS 6000, Hamamatsu, Japan).
After establishment of a fluorescence baseline for about 3 seconds, the compounds of the present invention were added to the cells, and the response in cells was measured.

For orientation: Emax means the maximal effect, on the per cent scale that the assay sets.

On to `Cn1c(Cl)ccc1C(=O)N1CCn2nc(OCc3cccc(F)c3)cc2C1` [Example B80, (5-chloro-1-methyl-1H-pyrrol-2-yl)-[2-(3-fluoro-benzyloxy)-6,7-dihydro-4H-pyrazolo[1,5-a]pyrazin-5-yl]-methanone], for which the EC50 was 22.9 nM and the Emax was 65%.
With `Cn1c(Cl)ccc1C(=O)N1CCn2nc(OCc3ccccc3)cc2C1` [Example B81], the EC50 was 25.1 nM and the maximum response (Emax) amounted to 69%.
For the compound `CO[C@](C(=O)N1CCn2nc(OCc3ccccc3)cc2C1)(c1ccccc1)C(F)(F)F` [Example B87], the EC50 is greater than 30200 nM and the Emax is 15%.
With `CN(C)c1cccc(C(=O)N2CCn3nc(OCc4ccccc4)cc3C2)n1` [Example B88], the EC50 is 617 nM and the Emax came out at 40%.
For `Cn1c(Cl)ccc1C(=O)N1CCCn2nc(OCc3ccccc3)cc2C1` [Example B90] the same measures were 47.9 nM and 74%.
`C[C@H]1Cn2nc(OCc3ccccc3)cc2CN1C(=O)c1ccc(Cl)n1C` [Example B91]: the EC50 was 3630 nM and the Emax worked out at 69%.
As for `Cn1ccc(C(=O)N2CCn3nc(OCc4cccc(F)c4)cc3C2)c1` [Example B92], the EC50 is 537 nM and the Emax was found to be 52%.
For `Cn1cc(C(=O)N2CCn3nc(OCc4cccc(F)c4)cc3C2)cc1Cl` [Example B93] the same measures were 347 nM and 65%.
For `CC(=O)N1CCn2nc(OCc3ccccc3)cc2C1` [Example B108] the same measures were greater than 30200 nM and 28%.
For the compound `O=C(c1ccc(F)cc1)N1CCn2nc(OCc3ccnc(F)c3)cc2C1` [Example B116], the EC50 was no less than 10000 nM and the Emax was determined as 51%.
For `O=C(c1ccc(F)cc1)N1CCn2nc(OCc3ncccn3)cc2C1` [Example B117] the same measures were greater than 30200 nM and 30%.
For `O=C(c1ccc(F)cc1)N1CCn2nc(OCc3ccc4nccn4c3)cc2C1` [Example B118], the EC50 was greater than 30200 nM and the Emax turned out to be 25%.
For `CS(=O)(=O)c1cccc(COc2cc3n(n2)CCN(C(=O)c2ccc(F)cc2)C3)c1` [Example B122] the same measures were greater than 30200 nM and 28%.
For `O=C(c1ccc(F)cc1)N1CCn2nc(OCc3ccnc(C(F)(F)F)c3)cc2C1` [Example B123] the same measures were no less than 10000 nM and 30%.
`O=C(c1ccc(F)cc1)N1CCn2nc(OCc3cccc(C(F)F)c3)cc2C1` [Example B124]: the EC50 was 676 nM and the Emax turned out to be 54%.
For `O=C(N1CCn2nc(OCc3ccccc3)cc2C1)C12C3C4C5C3C1C5C42` (centres unmarked) [Example B125] the same measures were 245 nM and 73%.
Consider `O=C(c1ccc(F)cc1)N1CCn2nc(OCc3ccnc(Cl)c3)cc2C1` [Example B126], for which the EC50 was 178 nM and the maximal response (Emax) was found to be 35%.
`N#Cc1cc(COc2cc3n(n2)CCN(C(=O)c2ccc(F)cc2)C3)ccn1` [Example B127]: the EC50 was 562 nM and the Emax was 36%.
For `Cn1ccc(COc2cc3n(n2)CCN(C(=O)c2ccc(F)cc2)C3)cc1=O` [Example B128] the same measures were greater than 30200 nM and 28%.
In the case of `O=C(c1ccc(F)cc1)N1CCn2nc(OCc3cc[n+]([O-])cc3)cc2C1` [Example B135], the EC50 is no less than 10000 nM and the Emax was 38%.
Turning to `O=C(c1ccc(F)cc1)N1CCn2nc(OCc3ccncc3Cl)cc2C1` [Example B136], the EC50 is no less than 10000 nM and the Emax stood at 41%.
For `O=C(c1ccnc(F)c1)N1CCn2nc(OCc3ccccc3)cc2C1` [Example B138] the same measures were 891 nM and 37%.
